The IC50 is the concentration that inhibits the measured activity by half.

These results are taken from patent US12679843B2, “Pyrrolopyrimidine amines as complement inhibitors” (BioCryst Pharmaceuticals, Inc., priority 2020, dated 2026).

Structures are written as SMILES. Bounds are passed on as bounds.

Chain of Factor D (P00746 26-253): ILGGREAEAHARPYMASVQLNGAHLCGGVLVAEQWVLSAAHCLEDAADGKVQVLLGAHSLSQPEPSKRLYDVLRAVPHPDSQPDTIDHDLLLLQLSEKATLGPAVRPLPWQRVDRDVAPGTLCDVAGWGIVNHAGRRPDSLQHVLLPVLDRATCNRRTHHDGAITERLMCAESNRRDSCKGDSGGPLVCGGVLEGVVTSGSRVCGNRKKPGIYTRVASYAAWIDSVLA

For the assay, the target named is Factor D (Homo sapiens, UniProt P00746). Put plainly: Factor D esterolytic assay (Z-Lys-SBzl thioester substrate, DTNB, 405 nm). The assay is classed as biochemical. Conditions: substrate Z-Lys-SBzl 1.29 mM, 100 mM HEPES, 500 mM NaCl, pH 7.5, 10% DMSO, tested a minimum of three times. On the procedure:
The IC50 value of a compound (i.e., the concentration of the compound that inhibits 50% of the enzymatic activity) was calculated according to the procedure reported in U.S. Pat. No. 6,653,340 B1, e.g., column 74 (incorporated by reference).
Specifically, the compounds were dissolved in a stock solution of DMSO at 10.0 or 100 mM. A portion of this stock solution was added to assay buffer in a final volume of 50 μL. Controls included buffer alone and enzyme solutions to which DMSO was added. Substrate was added to the reaction wells immediately or after incubation at room temperature. The reaction rates were measured spectrophotometrically by the generation of product at 405 nm for 600 sec. Background absorbance at 690 nm was measured and subtracted from the absorbance at 405 nm for each well.
The reaction rate for enzyme alone was compared to the rate of enzyme in the presence of inhibitor and the percent inhibition was calculated as shown below: Percent Inhibition=[Rate without inhibitor−Rate with inhibitor)/(Rate without inhibitor)]−100 Factor D Esterolytic Assay:
An established esterolytic assay for the measurement of Factor D activity and inhibition of Factor D activity was used (Kam, C. M.; McRae, B. J.; Harper, J. W.; Niemann, M. A.; Volanakis, J. E.; Powers, J. C. Human complement proteins D. C2, and B Active site mapping with peptide thioester substrates. J Biol. Chem. 1987, 262, 3444-3451). For this assay Z-Lys-SBzl, 1.29 mM (Kim, S.; Narayana, S. V. L; Volanakis, J. E. Mutational analysis of the substrate binding site of human complement Factor D. Biochemistry, 1994, 33, 14393-14399) was used as the substrate for Factor D ([…]). Hydrolysis of this compound by Factor D liberated a free sulfhydryl group which is then reacted with 5,5′-dithiobis(2-nitrobenzoic acid) producing an intense yellow color (Habeeb, A. F. S. A. Reaction of protein sulfhydryl groups with Ellman's Reagent. Methods in Enzymol. 1976, 25, 457-464). The assays were performed in 96 well microtiter plates and rates of hydrolysis were monitored at 405 nm on a Biotek Synergy H1 plate reader. Hydrolysis rates were reported as change in mOD/min. The assay was conducted in 100 mM HEPES, 500 mM NaCl, pH 7.5 containing 10% DMSO in a final volume of 50 μL per well.
An IC50, a compound concentration which inhibits 50% of the enzymatic activity, was calculated. Compounds in the examples were tested a minimum of three times.
Turning to `Nc1ncnc2c1c1cc(C(F)(F)F)ccc1n2CC(=O)N1C[C@@H](N)C[C@H]1C(=O)Nc1cccc(Br)n1` [Compound 180e, (2S,4S)-4-amino-1-(2-(4-amino-6-(trifluoromethyl)-9H-pyrimido[4,5-b]indol-9-yl)acetyl)-N-(6-bromopyridin-2-yl)pyrrolidine-2-carboxamide], the IC50 lay in the range of 0.1 to 1 µM.

As to `Nc1ncnc2c1c1cc(C(F)(F)F)ccc1n2CC(=O)N1C[C@H](F)C[C@H]1C(=O)Nc1cccc(Cl)n1` [Compound 246b, (2S,4R)-1-(2-(4-amino-6-(trifluoromethyl)-9H-pyrimido[4,5-b]indol-9-yl)acetyl)-N-(6-chloropyridin-2-yl)-4-fluoropyrrolidine-2-carboxamide], the IC50 was less than 0.1 µM.

Turning to `COC(=O)c1ccc2c(c1)c1c(N)ncnc1n2CC(=O)N1[C@H](C(=O)Nc2cccc(Br)n2)C[C@@]2(C)C[C@@H]12` [Compound 40a, methyl 4-amino-9-(2-((1R,3S,5R)-3-((6-bromopyridin-2-yl)carbamoyl)-5-methyl-2-azabicyclo[3.1.0]hexan-2-yl)-2-oxoethyl)-9H-pyrimido[4,5-b]indole-6-carboxylate], the IC50 is less than 0.1 µM.

`CNc1ncnc2c1cnn2CC(=O)N1CCC[C@H]1C(=O)NCc1cccc(Cl)c1F` [Compound 76b, (S)—N-(3-chloro-2-fluorobenzyl)-1-(2-(4-(methylamino)-1H-pyrazolo[3,4-d]pyrimidin-1-yl)acetyl)pyrrolidine-2-carboxamide]: the IC50 was more than 1 µM.

In the case of `C[C@@]12C[C@@H](C(=O)Nc3cccc(Br)n3)N(C(=O)Cn3c4ncccc4c4c(N)ncnc43)[C@@H]1C2` [Compound 183a, (1R,3S,5R)-2-(2-(4-amino-9H-pyrido[3′,2′:4,5]pyrrolo[2,3-d]pyrimidin-9-yl)acetyl)-N-(6-bromopyridin-2-yl)-5-methyl-2-azabicyclo[3.1.0]hexane-3-carboxamide], the IC50 was less than 0.1 µM.

With `COc1cccc(-c2cc(C)c3c(c2)c2c(N)ncnc2n3CC(=O)N2[C@@H]3C[C@@H]3C[C@H]2C(=O)Nc2cccc(Br)n2)c1` [Compound 341c, (1R,3S,5R)-2-(2-(4-amino-6-(3-methoxyphenyl)-8-methyl-9H-pyrimido[4,5-b]indol-9-yl)acetyl)-N-(6-bromopyridin-2-yl)-2-azabicyclo[3.1.0]hexane-3-carboxamide], the IC50 was less than 0.1 µM.

As for `Nc1ncnc2c1c(-c1ccoc1)cn2CC(=O)N1C[C@H](F)C[C@H]1C(=O)NCc1cccc(Cl)c1F` [Compound 143d, (2S,4R)-1-(2-(4-amino-5-(furan-3-yl)-7H-pyrrolo[2,3-d]pyrimidin-7-yl)acetyl)-N-(3-chloro-2-fluorobenzyl)-4-fluoropyrrolidine-2-carboxamide], the IC50 lay within 0.1 to 1 µM.

For `CNc1ncnc2c1cnn2CC(=O)N1CCC[C@H]1C(=O)Nc1cccc(Br)n1` [Compound 75d, (S)—N-(6-bromopyridin-2-yl)-1-(2-(4-(methylamino)-1H-pyrazolo[3,4-d]pyrimidin-1-yl)acetyl)pyrrolidine-2-carboxamide], the IC50 is more than 1 µM.

As to `Cc1ncc(-c2cc(C)c3c(c2)c2c(N)ncnc2n3CC(=O)N2[C@H](C(=O)Nc3cccc(Br)n3)C[C@@]3(C)C[C@@H]23)cn1` [Compound 309a, (1R,3S,5R)-2-(2-(4-amino-8-methyl-6-(2-methylpyrimidin-5-yl)-9H-pyrimido[4,5-b]indol-9-yl)acetyl)-N-(6-bromopyridin-2-yl)-5-methyl-2-azabicyclo[3.1.0]hexane-3-carboxamide], the IC50 is less than 0.1 µM.

On to `Cc1ncc(-c2cc(C)c3c(c2)c2c(N)ncnc2n3CC(=O)N2C[C@](C)(F)C[C@H]2C(=O)Nc2cccc(Cl)n2)cn1` [Compound 343a, (2S,4R)-1-(2-(4-amino-8-methyl-6-(2-methylpyrimidin-5-yl)-9H-pyrimido[4,5-b]indol-9-yl)acetyl)-N-(6-chloropyridin-2-yl)-4-fluoro-4-methylpyrrolidine-2-carboxamide], for which the IC50 is less than 0.1 µM.

As for `Cc1ccc2c(c1)c1c(N)ncnc1n2CC(=O)N1[C@H](C(=O)Nc2cccc(Br)n2)C[C@@]2(C)C[C@@H]12` [Compound 8b, (1R,3S,5R)-2-(2-(4-amino-6-methyl-9H-pyrimido[4,5-b]indol-9-yl)acetyl)-N-(6-bromopyridin-2-yl)-5-methyl-2-azabicyclo[3.1.0]hexane-3-carboxamide], the IC50 is less than 0.1 µM.

Turning to `Cc1ccc2c(c1)c1c(N)ncnc1n2CC(=O)N1C[C@H](F)C[C@H]1C(=O)NCc1cccc(Cl)c1F` [Compound 7b, (2S,4R)-1-(2-(4-amino-6-methyl-9H-pyrimido[4,5-b]indol-9-yl)acetyl)-N-(3-chloro-2-fluorobenzyl)-4-fluoropyrrolidine-2-carboxamide], the IC50 was less than 0.1 µM.

On to `Nc1c(C=O)cnc2c1ccn2CC(=O)N1[C@@H]2C[C@@H]2C[C@H]1C(=O)Nc1cccc(Br)n1` [Compound 156e, (1R,3S,5R)-2-(2-(4-amino-5-formyl-1H-pyrrolo[2,3-b]pyridin-1-yl)acetyl)-N-(6-bromopyridin-2-yl)-2-azabicyclo[3.1.0]hexane-3-carboxamide], for which the IC50 was 0.1 to 1 µM.

`Nc1ncnc2c1c(-c1cccc3cc[nH]c13)cn2CC(=O)N1C[C@H](F)C[C@H]1C(=O)NCc1cccc(Cl)c1F` [Compound 134b, (2S,4R)-1-(2-(4-amino-5-(1H-indol-7-yl)-7H-pyrrolo[2,3-d]pyrimidin-7-yl)acetyl)-N-(3-chloro-2-fluorobenzyl)-4-fluoropyrrolidine-2-carboxamide]: the IC50 is less than 0.1 µM.

`Nc1ncnc2c1ncn2CC(=O)N1CCS[C@H]1C(=O)NCc1cccc(Cl)c1F` [Compound 105b, (S)-3-(2-(6-amino-9H-purin-9-yl)acetyl)-N-(3-chloro-2-fluorobenzyl)thiazolidine-2-carboxamide]: the IC50 was in the range of 0.1 to 1 µM.

For the molecule `Nc1ncnc2c1c(I)cn2CC(=O)N1C[C@H](F)C[C@H]1C(=O)NCc1cccc(Cl)c1F` [Compound 148d, (2S,4R)-1-(2-(4-amino-5-iodo-7H-pyrrolo[2,3-d]pyrimidin-7-yl)acetyl)-N-(3-chloro-2-fluorobenzyl)-4-fluoropyrrolidine-2-carboxamide], the IC50 lay in the range of 0.1 to 1 µM.

For `Nc1ncnc2c1c1c(C(=O)O)cccc1n2CC(=O)N1[C@@H]2C[C@@H]2C[C@H]1C(=O)Nc1cccc(Br)n1` [Compound 224b, 4-amino-9-(2-((1R,3S,5R)-3-((6-bromopyridin-2-yl)carbamoyl)-2-azabicyclo[3.1.0]hexan-2-yl)-2-oxoethyl)-9H-pyrimido[4,5-b]indole-5-carboxylic acid], the IC50 is more than 1 µM.

As for `Cc1cc(C(F)(F)F)cc2c3c(N)ncnc3n(CC(=O)N3C[C@](C)(F)C[C@H]3C(=O)Nc3cccc(Br)n3)c12` [Compound 304a, (2S,4R)-1-(2-(4-amino-8-methyl-6-(trifluoromethyl)-9H-pyrimido[4,5-b]indol-9-yl)acetyl)-N-(6-bromopyridin-2-yl)-4-fluoro-4-methylpyrrolidine-2-carboxamide], the IC50 is less than 0.1 µM.

With `Cc1cc(C(F)(F)F)cc2c3c(N)ncnc3n(CC(=O)N3C[C@](C)(F)C[C@H]3C(=O)Nc3cccc(Cl)n3)c12` [Compound 320c, (2S,4R)-1-(2-(4-amino-8-methyl-6-(trifluoromethyl)-9H-pyrimido[4,5-b]indol-9-yl)acetyl)-N-(6-chloropyridin-2-yl)-4-fluoro-4-methylpyrrolidine-2-carboxamide], the IC50 was less than 0.1 µM.

In the case of `Cc1nc(C(F)(F)F)cc2c3c(N)ncnc3n(CC(=O)N3[C@@H]4C[C@@H]4C[C@H]3C(=O)Nc3cccc(Br)n3)c12` [Compound 346g, (1R,3S,5R)-2-(2-(4-amino-8-methyl-6-(trifluoromethyl)-9H-pyrido[4′,3′:4,5]pyrrolo[2,3-d]pyrimidin-9-yl)acetyl)-N-(6-bromopyridin-2-yl)-2-azabicyclo[3.1.0]hexane-3-carboxamide], the IC50 is less than 0.1 µM.

With `Cc1nc(C(F)(F)F)cc2c3c(N)ncnc3n(CC(=O)N3[C@H](C(=O)Nc4cccc(Cl)n4)C[C@@]4(C)C[C@@H]34)c12` [Compound 351a, (1R,3S,5R)-2-(2-(4-amino-8-methyl-6-(trifluoromethyl)-9H-pyrido[4′,3′:4,5]pyrrolo[2,3-d]pyrimidin-9-yl)acetyl)-N-(6-chloropyridin-2-yl)-5-methyl-2-azabicyclo[3.1.0]hexane-3-carboxamide], the IC50 was less than 0.1 µM.
